How the values were obtained:
HCT116 [1] = experiment: AC50 cell viability (CellTiter-Glo); higher = less potent; conditions: 48 h
HCT116 [2] = experiment: efficacy (fitted maximal change in viability relative to DMSO control); higher = less cytotoxic (negative = loss of viability); conditions: 48 h
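For AC50 cell viability (CellTiter-Glo) in this document: HCT116 colorectal carcinoma cells screened at five concentrations per compound, luminescent viability scaled between DMSO wells and empty wells on each plate, curves fitted per compound.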
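For efficacy (fitted maximal change in viability relative to DMSO control) in this document: Luminescence-based viability readout, five doses per compound, normalized against on-plate DMSO and empty-well controls, followed by dose-response curve fitting for every drug.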

SMILES	AC50 cell viability (HCT116 [1]) [µM]	efficacy (HCT116 [2]) [%]
NC(CSC(c1ccccc1)(c1ccccc1)c1ccccc1)C(=O)O (stereo in doubt) [S-Trityl-L-cysteine]	23.5	-53.6
Cc1ccc(-c2cc(C(F)(F)F)nn2-c2ccc([S+](N)(=O)[O-])cc2)cc1 [Celecoxib]	18.6	-77.8
C[C@@H](NCc1cc2ccccc2[nH]1)c1cccc2ccccc12 [Calindol]	13.2	-94.8
COc1ccc(-c2nc(N3CCOCC3)c3sc(CN(C)c4ncc(C(=O)NO)cn4)cc3n2)cn1 [CUDC-907]	0.0372	-96.8
CCc1nc(C(N)=O)c(Nc2ccc(N3CCC(N4CCN(C)CC4)CC3)c(OC)c2)nc1NC1CCOCC1 [Gilteritinib]	1.66	-65.1
OC(c1ccc(-c2ccc(CN3CCN(Cc4ccncc4)CC3)cc2)c(F)c1)(C(F)(F)F)C(F)(F)F [SR-2211]	10.5	-44.3
Cc1[nH]c(/C=C2\C(=O)Nc3ccccc32)c(C)c1CCC(=O)O [Orantinib]	23.5	-49.3
C[N+](C)([O-])CCNc1ccc(NCC[N+](C)(C)[O-])c2c1C(=O)c1c(O)ccc(O)c1C2=O [Banoxantrone]	2.09	-45.2
COC(=O)Nc1nc2cc([S+]([O-])c3ccccc3)ccc2[nH]1 (stereo not given) [Oxfendazole]	6.61	-47.9
COc1ccc(-c2ccc3ncc4c(c3c2)n(-c2ccc(N3CCNCC3)c(C(F)(F)F)c2)c(=O)n4C)cn1 [NVP-BGT226]	0.295	-117
CC(C)c1cnn2c(NCc3ccccc3)cc(N[C@@H](CO)[C@H](O)CO)nc12 [BS-194]	0.0833	-59.1
Nc1ncnc2c1c(-c1cnc3[nH]ccc3c1)nn2C1CCCC1 [PP-121]	2.63	-86.5
C[C@@H](Oc1ccc2[nH]nc(/C=C/c3cnn(CCO)c3)c2c1)c1c(Cl)cncc1Cl	0.661	-79.4
CC(C)(C)Cn1c(N)nc2ccc(-c3[nH]c(C(C)(C)C)nc3-c3ccc(F)cc3)nc21	23.5	-83.7
N[S+](=O)([O-])c1ccc(Cc2c(-c3cccc(-c4ccccc4)c3)nn(-c3nc(C(=O)O)cs3)c2CC2CC2)cc1	14.8	-43.2
CNc1nc(Nc2cnn([C@H]3CCN(C4COC4)C[C@@H]3F)c2Cl)ncc1C(F)(F)F [GNE-9605]	4.68	-51.4
Cc1cc(F)c(C(=O)Nc2cccc(-c3nncn3C(C)C)n2)cc1-n1cnc(C2CC2)c1 [Selonsertib]	16.6	-73.8
CN1CCCN(C(=O)c2cccc(-c3ccc(/C=C4/C(=O)Nc5ccc(Cl)cc54)o3)c2)CC1 [CX-6258]	7.42	-97.8
Clc1ccc(C(Cn2ccnc2)OCc2ccc(Sc3ccccc3)cc2)c(Cl)c1 (stereo not given) [Fenticonazole nitrate]	20.9	-90.5
COC1=CC=C2[N](CCCN(C)C)C=C(C2=C1)C/3=C(/C(=O)NC3=O)C4=C[NH]C5=C4C=CC=C5 [Go-6983]	10.5	-111
CC[S+](=O)([O-])Nc1ccc2c(c1)/C(=C(/Nc1ccc(CN3CCCCC3)cc1)c1ccccc1)C(=O)N2 [Hesperadin]	0.235	-90.4
COc1ccc(N(C)c2nc(C)nc3ccccc23)cc1 [Azixa]	0.00372	-64.3
COC1=CC=C(C=C1)C2=NC3=CC(=CC=C3[NH]2)/C4=N/NC(=O)CC4C (stereo not given) [Pimobendan]	9.34	-48.6
Cc1cccc(-c2[nH]c(C(C)(C)C)nc2-c2ccc3c(c2)OCO3)n1	2.95	-86.6
Cc1n[nH]c2ccc(-c3cncc(OC[C@@H](N)Cc4c[nH]c5ccccc45)c3)cc12	0.417	-80.2
CN[C@H]1CN(C[C@@H]1OC)C2=NC3=C(C=C2)C(=O)C(=C\N3C4=NC=CS4)/C(O)=O [Vosaroxin]	1.91	-59.8
COC(=O)C[C@](O)(CCCC(C)(C)O)C(=O)O[C@@H]1C(OC)=CC23CCCN2CCc2cc4c(cc2[C@H]13)OCO4 (stereo not given in full) [Omacetaxine mepesuccinate]	0.0235	-68.3
CCCCCC1=CC(=C([C@@H]2\C=C(C)/CC[C@H]2C(C)=C)C(=C1)O)O [Cannabidiol]	20.9	-84.5
CC(C)CC(=O)Nc1n[nH]c2c1CN(C(=O)C1CCN(C)CC1)C2(C)C	0.186	-68.7
Oc1cc(O)cc(/C=C/c2ccc(O)c(O)c2)c1 [Piceatannol]	26.3	-69
